system: HCV pseudoparticles (genotype 1a HCV E1 and E2 envelope, H77C isolate); experiment: microbe, parasite or virus in culture; assay type: cell-based; settings: Hepatitis C virus, Huh-7, 48 h, HCV pseudoparticles, Huh7 cells, luciferase 2 days after infection; average of duplicates

Row | SMILES | EC50 [nM]
1 | CC(C)(CNC(=O)C(N)=O)CNC(=O)c1c(F)cc(Nc2nc(NC3(c4ccc(Cl)cc4)CC3)nc(OCC(F)(F)F)n2)cc1F [Compound 3812] | 0.5
2 | Cc1c(Cl)ccc2sc(NC(=O)C(=O)NCC(C)(C)CNC(=O)c3ccc(Nc4nc(NC5(c6ccc(Cl)cc6)CC5)nc(OCC(F)(F)F)n4)cc3)nc12 [Compound 3817] | 0.11
3 | CC(C)(CNC(=O)C(=O)Nc1nc2c(F)cccc2s1)CNC(=O)c1ccc(Nc2nc(NC3(c4ccc(Cl)cc4)CC3)nc(OCC(F)(F)F)n2)cc1 [Compound 3824] | 0.077
4 | COc1ccc(NC(=O)C(=O)NCC(C)(C)CNC(=O)c2ccc(Nc3nc(NC4(c5ccc(Cl)cc5)CC4)nc(OCc4ccc(C(C)C)cc4)n3)cc2F)cc1 [Compound 3828] | 0.35
5 | CC(O)(CNC(=O)C(N)=O)CNC(=O)c1ccc(Nc2nc(NC3(c4ccc(Cl)cc4)CC3)nc(OCC(F)(F)F)n2)cc1 (stereo not drawn) [Compound 3834] | 0.086
6 | NC(=O)C(=O)NCC(CO)(CO)CNC(=O)c1ccc(Nc2nc(NC3(c4ccc(Cl)cc4)CC3)nc(OCC(F)(F)F)n2)cc1 [Compound 3838, N^1-(3-(4-((4-((1-(4-chlorophenyl)cyclopropyl)amino)-6-(2,2,2-trifluoroethoxy)-1,3,5-triazin-2-yl)amino)benzamido)-2,2-bis(hydroxymethyl)propyl)oxalamide] | 0.052
7 | Cc1ccc(NC(=O)C(=O)NCC(C)(C)CNC(=O)c2ccc(Nc3nc(NC4(c5ccc(Cl)cc5)CC4)nc(OCc4ccc(C(C)C)cc4)n3)cc2)cc1 [Compound 3839] | 0.078
8 | Cc1ccc(NC(=O)C(=O)NCC(C)(C)CNC(=O)c2ccc(Nc3nc(NC4(c5ccc(Cl)cc5)CC4)nc(OCc4ccc(F)cc4)n3)cc2)cc1 [Compound 3845] | 0.022
9 | Cc1ccc(NC(=O)C(=O)NCC(C)(C)CNC(=O)c2ccc(Nc3nc(NC4(c5ccc(Cl)cc5)CC4)nc(OCc4ccccc4F)n3)cc2)cc1 [Compound 3847] | 0.027

same assay, conditions: Hepatitis C virus, Huh-7, 48 h, read-out: Activity (EC50 class), HCV pseudoparticles, Huh7 cells, luciferase 2 days after infection; average of duplicates

Row | SMILES | EC50 [nM]
10 | CC(C)(CNC(=O)C(=O)Nc1nc2cnccc2s1)CNC(=O)c1ccc(Nc2nc(NC3(c4ccc(Cl)cc4)CC3)nc(OCC(F)(F)F)n2)cc1 [Compound 3808] | 0.01 to 10
11 | CC(C)(CNC(=O)C(=O)Nc1nc2c(F)cc(F)cc2s1)CNC(=O)c1ccc(Nc2nc(NC3(c4ccc(Cl)cc4)CC3)nc(OCC(F)(F)F)n2)cc1 [Compound 3809] | 0.01 to 10
12 | CC(C)(CNC(=O)C(=O)Nc1nc2cc(F)ccc2s1)CNC(=O)c1ccc(Nc2nc(NC3(c4ccc(Cl)cc4)CC3)nc(OCC(F)(F)F)n2)cc1 [Compound 3810] | 0.01 to 10
13 | CC(C)(CNC(=O)C(=O)Nc1nc2cccnc2s1)CNC(=O)c1ccc(Nc2nc(NC3(c4ccc(Cl)cc4)CC3)nc(OCC(F)(F)F)n2)cc1 [Compound 3811] | 0.01 to 10
14 | CC(C)(CNC(=O)C(N)=O)CNC(=O)c1c(F)cc(Nc2nc(NC3(c4ccc(Cl)cc4)CC3)nc(OCC(F)(F)F)n2)cc1F [Compound 3812] | 0.01 to 10
15 | COc1cccc2sc(NC(=O)C(=O)NCC(C)(C)CNC(=O)c3ccc(Nc4nc(NC5(c6ccc(Cl)cc6)CC5)nc(OCC(F)(F)F)n4)cc3)nc12 [Compound 3813] | 0.01 to 10
16 | COc1cccc2sc(NC(=O)C(=O)NCC(C)(C)CNC(=O)c3ccc(Nc4nc(NC5(c6ccc(Cl)cc6)CC5)nc(OCC(F)(F)F)n4)cc3F)nc12 [Compound 3814] | 0.01 to 10
17 | CC(C)(CNC(=O)C(=O)Nc1nc2c(Cl)cccc2s1)CNC(=O)c1ccc(Nc2nc(NC3(c4ccc(Cl)cc4)CC3)nc(OCC(F)(F)F)n2)cc1 [Compound 3815] | 0.01 to 10
18 | COc1ccc2nc(NC(=O)C(=O)NCC(C)(C)CNC(=O)c3ccc(Nc4nc(NC5(c6ccc(Cl)cc6)CC5)nc(OCC(F)(F)F)n4)cc3)sc2c1 [Compound 3816] | 0.01 to 10
19 | Cc1c(Cl)ccc2sc(NC(=O)C(=O)NCC(C)(C)CNC(=O)c3ccc(Nc4nc(NC5(c6ccc(Cl)cc6)CC5)nc(OCC(F)(F)F)n4)cc3)nc12 [Compound 3817] | 0.01 to 10
20 | Cc1ccc2sc(NC(=O)C(=O)NCC(C)(C)CNC(=O)c3ccc(Nc4nc(NC5(c6ccc(Cl)cc6)CC5)nc(OCC(F)(F)F)n4)cc3)nc2c1 [Compound 3818] | 0.01 to 10
21 | CC(C)(CNC(=O)C(=O)Nc1nc2c(O)cccc2s1)CNC(=O)c1ccc(Nc2nc(NC3(c4ccc(Cl)cc4)CC3)nc(OCC(F)(F)F)n2)cc1 [Compound 3819] | 0.01 to 10
22 | Cc1cc2nc(NC(=O)C(=O)NCC(C)(C)CNC(=O)c3ccc(Nc4nc(NC5(c6ccc(Cl)cc6)CC5)nc(OCC(F)(F)F)n4)cc3)sc2cc1C [Compound 3820] | 0.01 to 10
23 | CC(C)(CNC(=O)C(=O)Nc1nc2c(Cl)c(Cl)ccc2s1)CNC(=O)c1ccc(Nc2nc(NC3(c4ccc(Cl)cc4)CC3)nc(OCC(F)(F)F)n2)cc1 [Compound 3821] | 0.01 to 10
24 | CC(C)(CNC(=O)C(=O)Nc1nc2ccc(C(C)(O)O)cc2s1)CNC(=O)c1ccc(Nc2nc(NC3(c4ccc(Cl)cc4)CC3)nc(OCC(F)(F)F)n2)cc1 [Compound 3822] | 0.01 to 10
25 | CC(C)(CNC(=O)C(=O)Nc1nc2ccc(OC(F)(F)F)cc2s1)CNC(=O)c1ccc(Nc2nc(NC3(c4ccc(Cl)cc4)CC3)nc(OCC(F)(F)F)n2)cc1 [Compound 3823] | 0.01 to 10
26 | CC(C)(CNC(=O)C(=O)Nc1nc2c(F)cccc2s1)CNC(=O)c1ccc(Nc2nc(NC3(c4ccc(Cl)cc4)CC3)nc(OCC(F)(F)F)n2)cc1 [Compound 3824] | 0.01 to 10
27 | CC(C)(CNC(=O)C(=O)Nc1nc2ccc(S(N)(=O)=O)cc2s1)CNC(=O)c1ccc(Nc2nc(NC3(c4ccc(Cl)cc4)CC3)nc(OCC(F)(F)F)n2)cc1 [Compound 3825] | 0.01 to 10
28 | Cc1ccc2nc(NC(=O)C(=O)NCC(C)(C)CNC(=O)c3ccc(Nc4nc(NC5(c6ccc(Cl)cc6)CC5)nc(OCC(F)(F)F)n4)cc3)sc2c1 [Compound 3826] | 0.01 to 10
29 | Cc1ccc(NC(=O)C(=O)NCC(C)(C)CNC(=O)c2ccc(Nc3nc(NC4(c5ccc(Cl)cc5)CC4)nc(OCc4ccc(C(C)C)cc4)n3)cc2F)cc1 [Compound 3827, N^1-(3-(4-((4-((1-(4-chlorophenyl)cyclopropyl)amino)-6-((4-isopropylbenzyl)oxy)-1,3,5-triazin-2-yl)amino)-2-fluorobenzamido)-2,2-dimethylpropyl)-N^2-(p-tolyl)oxalamide] | 0.01 to 10
30 | COc1ccc(NC(=O)C(=O)NCC(C)(C)CNC(=O)c2ccc(Nc3nc(NC4(c5ccc(Cl)cc5)CC4)nc(OCc4ccc(C(C)C)cc4)n3)cc2F)cc1 [Compound 3828] | 0.01 to 10
31 | CC(C)c1ccc(COc2nc(Nc3ccc(C(=O)NCC(C)(C)CNC(=O)C(=O)Nc4ccccc4-c4ccccc4)c(F)c3)nc(NC3(c4ccc(Cl)cc4)CC3)n2)cc1 [Compound 3830, N^1-([1, 1′-biphenyl]-2-yl)-N^2-(3-(4-((4-((1-(4-chlorophenyl)cyclopropyl)amino)-6-((4-isopropylbenzyl)oxy)-1,3,5-triazin-2-yl)amino)-2-fluorobenzamido)-2,2-dimethylpropyl)oxalamide] | 0.01 to 10
32 | CC(C)(CNC(=O)C(=O)Nc1ccc(-c2nc3ccccc3o2)cc1)CNC(=O)c1ccc(Nc2nc(NC3(c4ccc(Cl)cc4)CC3)nc(OCC(F)(F)F)n2)cc1 [Compound 3831] | 0.01 to 10

Row | SMILES | EC50 [nM]
33 | Cc1ccc(NC(=O)C(=O)NCC(C)(O)CNC(=O)c2ccc(Nc3nc(NC4(c5ccc(Cl)cc5)CC4)nc(OCC(F)(F)F)n3)cc2)cc1 (stereo not drawn) [Compound 3832] | 0.01 to 10
34 | COc1ccc(CN(CC(C)(O)CNC(=O)c2ccc(Nc3nc(NC4(c5ccc(Cl)cc5)CC4)nc(OCC(F)(F)F)n3)cc2)C(=O)C(=O)Nc2ccc(C)cc2)c(OC)c1 (stereo not drawn) [Compound 3833] | 0.01 to 10
35 | CC(O)(CNC(=O)C(N)=O)CNC(=O)c1ccc(Nc2nc(NC3(c4ccc(Cl)cc4)CC3)nc(OCC(F)(F)F)n2)cc1 (stereo not drawn) [Compound 3834] | 0.01 to 10
36 | CC(C)c1ccc(COc2nc(Nc3ccc(C(=O)NCC(C)(C)CNC(=O)C(=O)Nc4ccc(F)cc4F)c(F)c3)nc(NC3(c4ccc(Cl)cc4)CC3)n2)cc1 [Compound 3835, N^1-(3-(4-((4-((1-(4-chlorophenyl)cyclopropyl)amino)-6-((4-isopropylbenzyl)oxy)-1,3,5-triazin-2-yl)amino)-2-fluorobenzamido)-2,2-dimethylpropyl)-N^2-(2,4-difluorophenyl)oxalamide] | 0.01 to 10
37 | CC(C)n1ccc(NC(=O)C(=O)NCC(C)(C)CNC(=O)c2ccc(Nc3nc(NC4(c5ccc(Cl)cc5)CC4)nc(OCC(F)(F)F)n3)cc2)n1 [Compound 3836] | 0.01 to 10
38 | CC(C)(CNC(=O)C(=O)Nc1nc2c(Cl)ccc(Cl)c2s1)CNC(=O)c1ccc(Nc2nc(NC3(c4ccc(Cl)cc4)CC3)nc(OCC(F)(F)F)n2)cc1 [Compound 3837] | 0.01 to 10
39 | NC(=O)C(=O)NCC(CO)(CO)CNC(=O)c1ccc(Nc2nc(NC3(c4ccc(Cl)cc4)CC3)nc(OCC(F)(F)F)n2)cc1 [Compound 3838, N^1-(3-(4-((4-((1-(4-chlorophenyl)cyclopropyl)amino)-6-(2,2,2-trifluoroethoxy)-1,3,5-triazin-2-yl)amino)benzamido)-2,2-bis(hydroxymethyl)propyl)oxalamide] | 0.01 to 10
40 | Cc1ccc(NC(=O)C(=O)NCC(C)(C)CNC(=O)c2ccc(Nc3nc(NC4(c5ccc(Cl)cc5)CC4)nc(OCc4ccc(C(C)C)cc4)n3)cc2)cc1 [Compound 3839] | 0.01 to 10
41 | Cc1ccc(NC(=O)C(=O)NCC(C)(C)CNC(=O)c2ccc(Nc3nc(NC4(c5ccc(Cl)cc5)CC4)nc(OCc4ccc(OC(F)F)cc4)n3)cc2)cc1 [Compound 3840] | 0.01 to 10
42 | Cc1ccc(NC(=O)C(=O)NCC(C)(C)CNC(=O)c2ccc(Nc3nc(NC4(c5ccc(Cl)cc5)CC4)nc(OCc4ccc(C(C)(C)C)cc4)n3)cc2)cc1 [Compound 3841] | 0.01 to 10
43 | CCc1ccc(COc2nc(Nc3ccc(C(=O)NCC(C)(C)CNC(=O)C(=O)Nc4ccc(C)cc4)cc3)nc(NC3(c4ccc(Cl)cc4)CC3)n2)cc1 [Compound 3842] | 0.01 to 10
44 | Cc1ccc(NC(=O)C(=O)NCC(C)(C)CNC(=O)c2ccc(Nc3nc(NC4(c5ccc(Cl)cc5)CC4)nc(OCc4ccccc4)n3)cc2)cc1 [Compound 3843] | 0.01 to 10
45 | Cc1ccc(NC(=O)C(=O)NCC(C)(C)CNC(=O)c2ccc(Nc3nc(NC4(c5ccc(Cl)cc5)CC4)nc(OCc4cccc(Cl)c4)n3)cc2)cc1 [Compound 3844] | 0.01 to 10
46 | Cc1ccc(NC(=O)C(=O)NCC(C)(C)CNC(=O)c2ccc(Nc3nc(NC4(c5ccc(Cl)cc5)CC4)nc(OCc4ccc(F)cc4)n3)cc2)cc1 [Compound 3845] | 0.01 to 10
47 | Cc1ccc(NC(=O)C(=O)NCC(C)(C)CNC(=O)c2ccc(Nc3nc(NC4(c5ccc(Cl)cc5)CC4)nc(OCc4cccc(F)c4)n3)cc2)cc1 [Compound 3846] | 0.01 to 10
48 | Cc1ccc(NC(=O)C(=O)NCC(C)(C)CNC(=O)c2ccc(Nc3nc(NC4(c5ccc(Cl)cc5)CC4)nc(OCc4ccccc4F)n3)cc2)cc1 [Compound 3847] | 0.01 to 10
49 | Cc1ccc(COc2nc(Nc3ccc(C(=O)NCC(C)(C)CNC(=O)C(=O)Nc4ccc(C)cc4)cc3)nc(NC3(c4ccc(Cl)cc4)CC3)n2)cc1 [Compound 3848] | 0.01 to 10
50 | Cc1ccc(NC(=O)C(=O)NCC(C)(C)CNC(=O)c2ccc(Nc3nc(NC4(c5ccc(Cl)cc5)CC4)nc(OCc4ccc(Cl)cc4)n3)cc2)cc1 [Compound 3849] | 0.01 to 10
51 | Cc1ccc(NC(=O)C(=O)NCC(C)(C)CNC(=O)c2ccc(Nc3nc(NC4(c5ccc(Cl)cc5)CC4)nc(OCc4ccccc4Cl)n3)cc2)cc1 [Compound 3850] | 0.01 to 10
52 | Cc1ccc(NC(=O)C(=O)NCC(C)(C)CNC(=O)c2ccc(Nc3nc(NC4(c5ccc(Cl)cc5)CC4)nc(OCc4ccc(C(F)(F)F)cc4)n3)cc2)cc1 [Compound 3851] | 0.01 to 10
53 | CC(C)(CNC(=O)C(=O)Nc1ccc(C#N)cc1)CNC(=O)c1ccc(Nc2nc(NC3(c4ccc(Cl)cc4)CC3)nc(OCc3ccc(OC(F)(F)F)cc3)n2)cc1 [Compound 3852] | 0.01 to 10
54 | CC(C)(CNC(=O)C(=O)Nc1ccc(C#N)cc1)CNC(=O)c1ccc(Nc2nc(NC3(c4ccc(Cl)cc4)CC3)nc(OCc3ccccc3F)n2)cc1 [Compound 3853] | 0.01 to 10
